In PubChem BioAssay (NCI) one finds TGI data, which are given here for eleven molecules.

Holding throughout (assay): NCI tumour cell line growth inhibition, 48 h
The subject of test [1] is 786-0 renal.
Test [2] has as its system UACC-257 melanoma.
In test [3] the test system is COLO 205 colon.
Test [4] concerns SK-MEL-5 melanoma.
Test [5] concerns SNB-75 CNS.
Test [6] has as its system HT29 colon.
Test [7] deals with SN12C renal.
Test [8] concerns OVCAR-8 ovarian.
Test [9] concerns OVCAR-3 ovarian.
The subject of test [10] is SK-MEL-28 melanoma.
Test [11] relates to SW-620 colon.
Test [12] has as its system MOLT-4 leukemia.
Test [13] relates to MDA-MB-435.
In test [14] the test system is NCI-H23 lung.
Test [15] has as its system LOX IMVI melanoma.
The test system of test [16] is MALME-3M melanoma.

Molecules are shown by their SMILES.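 Compound exposure: 48 hours, 5 concentrations, 96-well plates. TGI: total growth inhibition.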

As to `C=C[C@@H](OCOCC[Si](C)(C)C)[C@@H](CC)OC(CCCOC(=O)C(C)(C)C)OC` (stereo partly drawn), the TGI in test [1] was 88.5 µM; in test [2], above 100 µM; in test [3], 95.1 µM; in test [4], above 100 µM; in test [5], above 100 µM; in test [6], above 100 µM. Further, the TGI in [7] is above 100 µM; in [8] it was above 100 µM; in test [9] it was above 100 µM; in test [10], above 100 µM; in test [11], 70.1 µM; in test [12], above 100 µM. Moreover, the TGI in test [13] and in test [14] was above 100 µM in each case.

For the molecule `O=C(O)c1c[nH]c2c(=O)[nH]cnc12`, the TGI in [1], in test [2], in test [3], in test [4], in test [5] and in [6] was above 100 µM each time. Also, the TGI in test [7], in [15], in [8], in test [9], in test [10] and in test [11] was above 100 µM throughout. Moreover, the TGI in [12], in test [14] and in [16] was above 100 µM each time.

`CC12CCC([C@H](N3CCOCC3)/C1=N\OCCN1CCCC1)C2(C)C` (stereo partly drawn): the TGI in test [1], in test [2], in test [3], in [4], in test [5] and in [6] was above 100 µM in each case. Besides, the TGI in test [7], in [15], in [8], in test [9], in test [10] and in [11] was above 100 µM in each case. Besides, the TGI in test [12], in test [14] and in test [16] was above 100 µM in each case.

For the molecule `NCCC(=O)N[C@H](Cc1cc(O)c(O)c(SCC(NC(=O)CC[C@H](N)C(=O)O)C(=O)NCC(=O)O)c1)C(=O)O` (stereo partly drawn), the TGI in test [1], in [2], in [3], in test [4], in test [5] and in [6] was above 50 µM each time. Besides, the TGI in [7], in [10], in test [11], in test [13], in test [14] and in test [16] was above 50 µM each time.

As for `C#CCSc1nc(N)c2ncn(C3OC(CO)C(O)C3O)c2n1` (stereo not drawn), the TGI in test [1], in test [2], in [3], in test [4], in test [6] and in test [7] was above 100 µM in each case. Also, the TGI in [15], in test [8], in test [9], in [10], in test [11] and in [12] was above 100 µM throughout. Moreover, the TGI in [14] and in [16] was above 100 µM throughout.

Take `O=C(C/C(=N\NC(=O)C[n+]1ccccc1)C(=O)Nc1nc2ccc([N+](=O)[O-])cc2s1)CC(c1ccccc1)c1c(O)c2ccccc2oc1=O` (stereo not drawn): the TGI in [1], in [2], in test [3], in [4], in test [6] and in test [7] was above 100 µM throughout. The TGI in test [8], in test [9], in test [10], in test [11], in [12] and in [14] was above 100 µM throughout. The molecule further registered a TGI in test [16] above 100 µM.

On to `CCC(CC)C(=O)OC[n+]1ccc(-c2c(COC(=O)NC(C)C)c(COC(=O)NC(C)C)c3n2CCC3)cc1`, for which the TGI in [1], in test [2], in test [3], in test [4], in test [7] and in [8] was above 100 µM throughout. Besides, the TGI in test [9], in [11], in test [12] and in [14] was above 100 µM each time.

Take `O=C(CC(=O)C(=O)Nc1ccccc1)CC(c1ccccc1)c1c(O)c2ccccc2oc1=O` (stereo not drawn): the TGI in [1], in [3], in test [4], in [5], in test [6] and in test [15] was above 100 µM throughout. In addition, the TGI in test [9], in [10], in test [11], in [12] and in test [16] was above 100 µM each time.

Consider `CNC(=O)CCNC(=O)CCC(=O)N(C)C`, for which the TGI in [1], in test [3], in test [4], in test [6], in [7] and in test [8] was above 100 µM throughout. The TGI in [9], in [10], in [11], in [12], in [13] and in test [14] was above 100 µM in each case. Besides, the TGI in test [16] is above 100 µM.

`C=C[C@@]1(C)CCC2(O)C(CCC3C2(C)CCC[C@@]3(C)COC(=O)CC(=O)OC)C1` (stereo partly drawn): the TGI was above 100 µM in test [1]; 36.5 µM in test [2]; 32.1 µM in test [4]; 48.4 µM in test [5]; 33.2 µM in [6]; 38.2 µM in test [7]. Further, the TGI in [15] was found to be 31.1 µM; in test [8], 55 µM; in test [9], 32.5 µM; in test [10], 30.9 µM; in test [11] it was 31.7 µM; in test [12] it was 36 µM. For the same molecule, the TGI in test [14] is 37.4 µM; in [16] it was 32.3 µM.

For the molecule `C=CCC1C(=O)C(C(=O)OC)N2CCc3c([nH]c4ccccc34)C12` (stereo not drawn), the TGI in test [1], in [3], in test [4], in [6], in test [7] and in test [8] was above 100 µM throughout. The TGI in test [9], in test [10], in [11], in [12], in test [14] and in [16] was above 100 µM in each case.
